Laboratory results: patent publication US8999925B2 (priority 2013, dated 2015)

Legend:
Tamiami virus (TAMV) = assay type: cell-based
[1] = tested on: pseudotyped VSV expressing LASV GPC (VSVΔLASV); assay type: cell-based
[2] = tested on: vesicular stomatitis virus (VSV); assay type: cell-based
[3] = tested on: herpes simplex virus-1 (HSV-1, McIntyre strain); assay type: cell-based
measles virus (MV) = assay type: cell-based
R18-labeled PICV = assay type: biochemical
[4] = tested on: POPC LUVs or purified PICV
PICV = assay type: cell-based

Compound | plaque reduction (Tamiami virus (TAMV)) [%] | plaque reduction [1] [%] | inhibition of plaque formation [2] | inhibition of plaque formation [3] | inhibition of plaque formation (measles virus (MV)) | dequenching of PICV pre-incubated at pH 5.0 prior to labeling (R18-labeled PICV; pH 5) | dequenching of R18-labeled virus (R18-labeled PICV; pH 7.4) | presence of pre-fusion glycoprotein spikes (cryo-EM) (Purified PICV) | size distribution of viral particles (cryo-EM) (Purified PICV) | DPH anisotropy [4] | TMA-DPH anisotropy [4] | effect on viral infectivity (PICV) | effect on viral infectivity (plaque number) (PICV) | peptide concentration giving complete inhibition of plaque formation (PICV (CoAn 3739)) | IC50 (PICV (CoAn 3739); 1 h) [µM]
CC[C@H](C)[C@H](NC(=O)[C@H](CC(C)C)NC(=O)CNC(=O)[C@H](CC(N)=O)NC(=O)[C@@H](NC(=O)[C@@H](NC(=O)[C@H](CCCCN)NC(=O)[C@H](CCCCN)NC(=O)[C@H](Cc1ccccc1)NC(=O)[C@H](CC(C)C)NC(=O)[C@H](CC(N)=O)NC(=O)[C@@H](N)CC(C)C)[C@@H](C)O)[C@@H](C)CC)C(=O)N[C@@H](CO)C(=O)N[C@@H](CC(=O)O)C(=O)N[C@@H](CO)C(=O)N[C@@H](CC(C)C)C(=O)N[C@H](C(=O)N[C@H](C(=O)N[C@@H](CCCNC(=N)N)C(=O)O)[C@@H](C)CC)C(C)C [Peptide 1] | 45.0±5.0 | 63.8±13.0 | not significantly inhibited | not significantly inhibited | not significantly inhibited | did not induce significant dequenching | extensive dequenching | Disappearance of pre-fusion glycoprotein spikes was also observed in a significant number of particles | greater shift toward larger particles | Concentration-dependent increases in probe anisotropy values were observed to a greater degree with Peptide 1 than with Peptide 8 | increased substantially | no significant antiviral activity or increase in viral infectivity was observed | no increase in plaque number was observed | approximately 20 μM | 7.05 ± 2.19
PGGYALEQWAIIWAGIKAF [Peptide 8] | – | – | – | – | – | – | – | – | – | purely incidental alterations in acyl chain packing | – | – | – | – | –
